Reference: patent US20050032844A1, “Methods for regulating nicotine metabolism” (Nicogen, Inc., priority 1996, published 2005)
Several values for one entry are separate records, joined by “and”; a condition that tells them apart may be missing. Identical values can stand only once. Entries after “also recorded” stand apart in the source; their conditions may differ. Counter-ions that a name gives are not always drawn. Like-named read-outs stand apart in the source and are kept apart here.

How the values were obtained:
CYP2A6 [1] = assay: Antisense knockdown of CYP2A6 protein in HepG2 cells; assay type: cell-based, human; conditions: 2 μg ASO, relative to control untreated and MSO#23 treated cells
Experimental: (§1) In order to test the feasiblility of using antisense oligodeoxynucleotides (ASO) for the reduction of the CYP2A6 enzyme we designed 4 ASO to four different parts of the human CYP2A6 gene and mRNA sequence. The ability to decrease CYP2A6 protein was tested in 2 different human cell lines. The first was a human lymphoblast cell line (h2A6) with a plasmid expression system containing the human CYP2A6 cDNA which is commercially available from Gentest Corp (Woburn, Mass.) and the second was a human hepatic cell line which expresses CYP2A6 (HepG2).
The human hepatic HepG2 cells, which express CYP2A6, were grown and aliquoted at 1.0×10^5 cells and grown for 48 hrs in 2 mls complete media (10% fetal calf serum). After 48 hr, 2 μg ASO oligos and 15 μg/ml lipofectin was added in 1 ml 5% FCS media and grown for 24 hr. Cells then trypsinized and washed for Western blots or fixed with 4% paraformaldehyde for Immunocytochemistry.

CYP2A6 [2] = assay: Antisense knockdown of CYP2A6 protein in h2A6 lymphoblast cells (Western blot); assay type: cell-based, human
Experimental: as §1
The h2A6 P450 cells were grown to 3×10^6 cells, the media removed and 5 μg ASO and 20 μg/ml lipofectin was added in 1 ml of 5% horse serum supplemented media. The cells were grown for 24 hr when a further 4 mls of complete media (10% horse serum) was added and the cells were grown for an additional 48 hr. Each cell sample was then washed 3 times with phosphate buffered saline, pelleted and frozen. […] These studies were then repeated using the addition of missense oligodeoxynucleotides (MSO) controls for this sequence. The MSO controls have 2 nucleotides switched at the 5 and 3 prime end.

CYP2D6 [3] = molecular target: T1, CYP2D6 (Homo sapiens, UniProt P10635); assay: in vitro; conditions: pH 7.4
CYP2A6 [4] = molecular target: T2, CYP2A6 (Homo sapiens, UniProt P11509); assay: biochemical
T2 sequence (P11509 1-494): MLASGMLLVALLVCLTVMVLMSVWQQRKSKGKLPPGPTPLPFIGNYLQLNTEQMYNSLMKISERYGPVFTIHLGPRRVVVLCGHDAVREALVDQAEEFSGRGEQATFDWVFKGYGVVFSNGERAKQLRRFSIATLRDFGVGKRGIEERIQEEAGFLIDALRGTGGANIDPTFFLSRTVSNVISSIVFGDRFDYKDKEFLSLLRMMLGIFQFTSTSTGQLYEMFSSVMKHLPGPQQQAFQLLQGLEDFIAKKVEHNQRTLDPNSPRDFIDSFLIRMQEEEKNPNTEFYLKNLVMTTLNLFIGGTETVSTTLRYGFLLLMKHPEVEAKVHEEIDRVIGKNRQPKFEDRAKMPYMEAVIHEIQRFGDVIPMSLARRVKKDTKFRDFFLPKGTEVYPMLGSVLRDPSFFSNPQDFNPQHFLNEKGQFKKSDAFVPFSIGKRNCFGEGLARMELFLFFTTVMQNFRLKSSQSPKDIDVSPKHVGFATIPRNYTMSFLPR
Experimental: Coumarin, 7-methylcoumarin, 7-methoxycoumarin and 7-ethoxycoumarin, at 10 and 100 μM concentrations, were incubated with 50 μM nicotine in K27 human liver microsomes. Furthermore, nicotine at 10, 30 and 50 μM concentrations was incubated using K27 liver microsomes in the presence of 0, 1, 2 and 5 μM concentrations of coumarin.
Microsomes were removed from −70° C. freezer and thawed on ice. […] The reaction was stopped by adding 100 μl to 20% Na2CO3 (pH 11.4).

[5] = smokers infused with 2 μg/kg/min×30 minutes
CYP2D6 [6] = molecular target: T1, CYP2D6; conditions: human liver microsomes, Wu, 1993; cited from earlier work
in vitro = conditions: human, human liver microsomes
Experimental: The reaction was started by adding NADPH.
Ethyl acetate (3 mls) was added for extraction purposes.
Data Analysis. […] [formula]

[7] = system: nicotine to cotinine metabolism by human liver microsomes; assay: Chemical inhibition studies of nicotine to cotinine metabolism in 30 human liver microsomes and K27 microsomes; assay type: biochemical; conditions: for rank order of potency in inhibiting cotinine formation: 10 and 100 μM inhibitor, 50 μM nicotine, K27 liver microsomes; for mean inhibition of cotinine formation (mean±SD): 150 μM inhibitor (each), 100 μM (S)-nicotine, 30 human liver microsomes
Experimental: Chemical inhibition studies. […] To maximize inhibition, and reduce the loss due to its own metabolism, a concentration of 150 μM was chosen for each specific inhibitor. […] This concentration was chosen to maximize the contributions of each cytochrome P450 involved in nicotine metabolism, since each enzyme would likely have varying affinities for nicotine. […] High and low concentrations ([…]) of coumarin, 7methylcoumarin, 7-methoxycoumarin, and 7-ethoxycoumarin were incubated with 50 μM nicotine in K27 human liver microsomes.

[8] = in vivo; cited from earlier work
[9] = system: nicotine to cotinine metabolism by K20 human liver microsomes
[10] = system: nicotine to cotinine metabolism by K20 human liver microsomes; assay: Quinidine and coumarin inhibition of cotinine formation in K20 human liver microsomes
[11] = in humans; cited from earlier work
CYP2A6 [12] = molecular target: T2, CYP2A6; assay: Clinical study of methoxsalen pre-treatment before subcutaneous nicotine in dependent smokers; assay type: in vivo; parameters: 200 μl human liver microsomes (0.5 mg/ml); from tissue; host or cells: human liver microsomes (donor livers K12, K26, K27, K28)
Experimental: Frequent blood samples were drawn over 6 hours for measurement of nicotine and cotinine concentrations in plasma and measures of nicotine effects (e.g., heart rate; blood pressure; symptoms and urges and desires to smoke).
Each subject abstained from tobacco, food, beverages (other than water), and any inconsistently used drugs from midnight before each study day but continued to take any regularly scheduled drugs allowed by the protocol (e.g., oral contraceptives, daily vitamins). Before baseline measures were taken, a breath CO sample (Ecolyzer) was taken to assess compliance with the smoking abstinence (<10 ppm expected). The subsequent daily schedule is summarized here. All measurements are with respect to a time zero at 8 AM, at which time the first of three hourly nicotine injections were given. Nicotine was injected at 0, +1, and +2 hours.
Baseline physiologic and subjective measures were taken at −30 minutes, +30 minutes, and hourly thereafter until +5.5 hours, approximately coinciding with the expected peak plasma nicotine concentrations after each injection. Blood samples were taken at least hourly, more often around the expected peaks after the first and third injections, as described below.
Sterile nicotine bitartrate was obtained from Sigma Chemical. […] Nicotine injections of 31 μg/kg (expressed as the base) in sterile saline were used. […] The solutions were passed through a viral filter to remove any remote risk of viral or bacterial contamination.
Using an indwelling venous catheter, 8 ml blood samples were drawn every hour from +0 to +6 hours, and additional blood samples were taken at 15, 25, and 40 minutes after the first and third nicotine injections to characterize the kinetics around the expected time of the peak concentration, 25 minutes from injection. Samples that could not be immediately centrifuged for extraction of plasma were stored on ice for at most one hour before centrifugation.
Plasma (nicotine, cotinine) and urinary nicotine and cotinine were measured using an HPLC ion exchange column assay, using an electrochemical detector for nicotine and a UV detector for other compounds. The sensitivity of the nicotine assay was <1 ng/ml and that of the cotinine was <5 ng/ml. Conjugates in urine were determined after hydrolysis with beta-glucuronidase.

[13] = seven smokers, methoxsalen vs placebo

T1 sequence (P10635 whole entry): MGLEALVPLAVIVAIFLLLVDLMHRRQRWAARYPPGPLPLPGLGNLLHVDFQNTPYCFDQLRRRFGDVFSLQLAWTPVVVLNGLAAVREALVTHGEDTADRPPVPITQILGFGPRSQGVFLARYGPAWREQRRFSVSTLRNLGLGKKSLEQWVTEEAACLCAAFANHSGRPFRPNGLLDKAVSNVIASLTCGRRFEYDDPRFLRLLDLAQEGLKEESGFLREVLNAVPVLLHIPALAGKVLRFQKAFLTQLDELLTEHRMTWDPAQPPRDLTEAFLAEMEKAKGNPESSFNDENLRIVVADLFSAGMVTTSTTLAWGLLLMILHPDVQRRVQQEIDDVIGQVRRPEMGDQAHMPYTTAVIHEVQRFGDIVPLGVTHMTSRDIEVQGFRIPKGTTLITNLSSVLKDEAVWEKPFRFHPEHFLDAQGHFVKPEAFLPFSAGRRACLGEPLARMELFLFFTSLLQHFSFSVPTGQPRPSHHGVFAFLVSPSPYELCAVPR

## ASO#23: antisense oligodeoxynucleotide, CYP2A6 mRNA 333-353, exon 2 3 prime end: CCATAGCCTTTGAAGACCCAG (DNA, backbone and methylation of C not given here)
CYP2A6 [1]
  CYP2A6 protein: profound decreases in CYP2A6 protein
CYP2A6 [2]; 5 μg ASO, Western blot
  CYP2A6 immunoreactivity, first test of 4 ASO: effective at removing the CYP2A6 immunoreactivity
CYP2A6 [2]; relative to untreated control cells and MSO#23-treated cells
  amount of CYP2A6, repeat with MSO controls: effectively deceased the amount of CYP2A6

## COc1ccc2c(c1)[C@]13CCCC[C@@H]1[C@H](C2)N(C)CC3 [dextromethorphan, Dextromethorphan hydrobromide]
CYP2D6 [3]
  Km at 30 min: 5.79 ± 2.01 µM

## CCN(CC)C(=S)S [diethyldithiocarbamic acid]
CYP2A6 [4]
  Ki: 14.5 µM

## CN1CCC[C@H]1c1cccnc1 [nicotine, (S)-nicotine]
[5]
  urine concentration of NIC: > 80 ng/mL
CYP2D6 [6]
  inhibition of dextromethorphan metabolism by CYP2D6: did not inhibit
In vitro; pH 7.4, apparent Km, formation of cotinine (mean±SD), 30 human liver microsomes
  Km at 45 min: 66.7 ± 31.8 µM
In vitro; pH 7.4, mean Km, nicotine to cotinine (mean±SD), 30 human livers
  Km at 45 min: 66.6 ± 31.8 µM

## CCOc1ccc2ccc(=O)oc2c1 [7-ethoxycoumarin]
[7]
  rank order of potency in inhibiting cotinine formation: coumarin>7-methoxycoumarin>7-methylcoumarin>7-ethoxycoumarin

## Cc1ccc2ccc(=O)oc2c1 [7-methylcoumarin]
[7]
  rank order of potency in inhibiting cotinine formation: coumarin>7-methoxycoumarin>7-methylcoumarin>7-ethoxycoumarin

## CO[C@H]1C[C@H](O[C@H]2[C@H](C)[C@@H](O[C@@H]3O[C@H](C)C[C@H](N(C)C)[C@H]3OC(C)=O)[C@@H](C)C[C@@]3(CO3)C(=O)[C@H](C)[C@@H](OC(C)=O)[C@@H](C)[C@@H](C)OC(=O)[C@@H]2C)O[C@@H](C)[C@@H]1OC(C)=O [troleandomycin]
[7]
  mean inhibition of cotinine formation (mean±SD): 3%

## Cc1ccccc1C(OCCN(C)C)c1ccccc1 (stereo not drawn) [orphenadrine]
[8]
  estimated half-life: about 14 h

## O=c1ccc2ccccc2o1 [coumarin]
[7]
  mean inhibition of cotinine formation (mean±SD): over 80%
  rank order of potency in inhibiting cotinine formation: strongest inhibitory effect; also recorded: coumarin>7-methoxycoumarin>7-methylcoumarin>7-ethoxycoumarin
[7]; listed as Coumarin
  mean inhibition of cotinine formation (mean±SD): 84%±11% and 84±11%
[7]; Cornish-Bowden plots
  nature of inhibition of nicotine metabolism: competitive
[7]; K27 human liver microsomes, n=3, Dixon plot, read-out: apparent Ki, inhibition of nicotine metabolism
  Ki: ~2000 nM
[7]; ex vivo in human liver microsomes, read-out: Ki, inhibition of NIC metabolism to COT
  Ki: 1500 nM

## C=C[C@H]1C[N@@]2CC[C@H]1C[C@@H]2[C@@H](O)c1ccnc2ccc(OC)cc12 [quinidine]
[9]
  inhibition: ~20% and 25%
[10]; 0.1 μM inhibitor
  inhibition of cotinine formation: no inhibition
[10]; 1.0 μM inhibitor
  inhibition of cotinine formation: no inhibition
[10]; 10 μM inhibitor
  inhibition of cotinine formation: 8%

## O=C1C[C@@H](c2ccc(O)cc2)Oc2cc(O)cc(O)c21 [naringenin]
CYP2A6 [4]
  Ki: 4.3 µM

## COc1ccc2ccc(=O)oc2c1 [7-methoxycoumarin]
[7]
  rank order of potency in inhibiting cotinine formation: coumarin>7-methoxycoumarin>7-methylcoumarin>7-ethoxycoumarin

## COc1c2occc2cc2ccc(=O)oc12 [methoxsalen, 9-Methoxy-7H-furol[3,2-g][1]benzopyran-7-one]
[11]
  half-life: about 1 hour
CYP2A6 [12]; plasma, seven subjects, FIG. 25
  change in nicotine concentrations: large changes
CYP2A6 [12]; [13]
  desire to smoke and urge to smoke: significant decreased desire to smoke and urge to smoke
  expectation that a cigarette would be pleasant: significant decrease
  subjective and physiologic effects accompanying increased plasma nicotine: significant increase in nausea, anxiousness, difficulty concentrating, systolic blood pressure
